Results from patent US6046228A, “Anti-viral pharmaceutical compositions containing saturated 1,2-dithiaheterocyclic compounds and uses thereof” (priority 1999, dated 2000).
Like-named read-outs stand apart in the source and are kept apart here.

Assays:
HIV-1RF = assay: XTT cytoprotection (cytopathicity) anti-HIV assay, CEM-SS cells; type: cell-based; conditions: for EC50: Human immunodeficiency virus 1, CEM-SS
Protocol: (§1) Initial anti-HIV screening was performed with CEM-SS cells and HIV-1RFusing the XTT cytoprotection assay as previously described (Weislow et al., J. National Cancer Inst. 81: 577-586, (1989)). HIV-1 isolates included common laboratory stains (RF, IIIB and MN), as well as a panel of HIV-1 clinical isolates (Cushman et al., J. Med. Chem. 37: 3040-3050, (1994)). The pyridone-resistant HIV-1A17 isolate (Nunberg et al., J. Virol., 65: 4887-4892 (1991)) was obtained from Emilio Emini at Merck Sharpe and Dohme Laboratories. Phytohemagglutinin-stimulated human peripheral blood lymphocytes (PBLs) and fresh monocyte-macrophage (Mono/MF) cultures were prepared and utilized in antiviral assays as previously described (Rice et al., Proc. Nat'l. Academy Science, USA 90: 9721-9724, (1993)); (Cushman et al., J. Med. Chem. 37: 3040-3050, (1994)). EC50 values for these cultures indicate the drug concentration that provided a 50% reduction in viral p24 production. […] The compounds can be synthesized according to the teachings of Singh et al., Sulfur Letters 8: 107-114, (1988). […] MT-2, MT-4, U1, HeLa-CD4-LTR-β-gal and 174xCEM cells were obtained from the AIDS Research and Reference Program (National Institute of Allergy and Infectious Disease, National Institutes of Health, Bethesda, Md. USA), as were the HIV-2MS and the AZT-resistant HIV-1G910-6 isolates.
(§2) Racemate and enantiomers of the cis-1,1-dioxo[1,2]dithiane-4,5-diol were synthesized and evaluated for antiviral activity in the XTT assay as described hereinabove.

CEM-SS cells = assay: XTT assay, cytotoxicity (IC50), CEM-SS cells; type: cell-based; conditions: Homo sapiens, CEM-SS, cytotoxicity, CEM-SS cells; read-out: XTT Assay IC50
Protocol: as §1, §2

HIV-1ADA = assay: antiviral assay in monocyte-macrophage cultures (p24); type: cell-based
Protocol: Initial anti-HIV screening was performed with CEM-SS cells and HIV-1RFusing the XTT cytoprotection assay as previously described (Weislow et al., J. National Cancer Inst. 81: 577-586, (1989)). HIV-1 isolates included common laboratory stains (RF, IIIB and MN), as well as a panel of HIV-1 clinical isolates (Cushman et al., J. Med. Chem. 37: 3040-3050, (1994)). The pyridone-resistant HIV-1A17 isolate (Nunberg et al., J. Virol., 65: 4887-4892 (1991)) was obtained from Emilio Emini at Merck Sharpe and Dohme Laboratories. Phytohemagglutinin-stimulated human peripheral blood lymphocytes (PBLs) and fresh monocyte-macrophage (Mono/MF) cultures were prepared and utilized in antiviral assays as previously described (Rice et al., Proc. Nat'l. Academy Science, USA 90: 9721-9724, (1993)); (Cushman et al., J. Med. Chem. 37: 3040-3050, (1994)). EC50 values for these cultures indicate the drug concentration that provided a 50% reduction in viral p24 production. […] The compounds can be synthesized according to the teachings of Singh et al., Sulfur Letters 8: 107-114, (1988). The 4,5-cis-dihydroxy(1,1-dioxy-1,2,-dithiohexane) compound (NSC 624151) has been abbreviated as 624151 for convenience. MT-2, MT-4, U1, HeLa-CD4-LTR-β-gal and 174xCEM cells were obtained from the AIDS Research and Reference Program (National Institute of Allergy and Infectious Disease, National Institutes of Health, Bethesda, Md. USA), as were the HIV-2MS and the AZT-resistant HIV-1G910-6 isolates. […]

[1] = tested on: monocyte-macrophage (Mo/M.PHI.) cultures; assay: cytotoxicity in monocyte-macrophage cultures; type: cell-based
Protocol: Initial anti-HIV screening was performed with CEM-SS cells and HIV-1RFusing the XTT cytoprotection assay as previously described (Weislow et al., J. National Cancer Inst. 81: 577-586, (1989)). HIV-1 isolates included common laboratory stains (RF, IIIB and MN), as well as a panel of HIV-1 clinical isolates (Cushman et al., J. Med. Chem. 37: 3040-3050, (1994)). The pyridone-resistant HIV-1A17 isolate (Nunberg et al., J. Virol., 65: 4887-4892 (1991)) was obtained from Emilio Emini at Merck Sharpe and Dohme Laboratories. Phytohemagglutinin-stimulated human peripheral blood lymphocytes (PBLs) and fresh monocyte-macrophage (Mono/MF) cultures were prepared and utilized in antiviral assays as previously described (Rice et al., Proc. Nat'l. Academy Science, USA 90: 9721-9724, (1993)); (Cushman et al., J. Med. Chem. 37: 3040-3050, (1994)). EC50 values for these cultures indicate the drug concentration that provided a 50% reduction in viral p24 production. […] The compounds can be synthesized according to the teachings of Singh et al., Sulfur Letters 8: 107-114, (1988). The 4,5-cis-dihydroxy(1,1-dioxy-1,2,-dithiohexane) compound (NSC 624151) has been abbreviated as 624151 for convenience. MT-2, MT-4, U1, HeLa-CD4-LTR-β-gal and 174xCEM cells were obtained from the AIDS Research and Reference Program (National Institute of Allergy and Infectious Disease, National Institutes of Health, Bethesda, Md. USA), as were the HIV-2MS and the AZT-resistant HIV-1G910-6 isolates.

HIV-1 p7NC protein = molecular target: T1, HIV-1 p7NC protein (Human immunodeficiency virus type 1 group M subtype B, UniProt P04591); assay: Trp37 zinc finger fluorescence assay (zinc ejection from p7NC); type: biochemical; conditions: in words; for zinc ejection: FIG. 1(A)
T1 construct: recombinant HIV-1 p7NC protein
Protocol: Fluorescence measurements of the Trp^37 residue in the C-terminal zinc finger of the recombinant HIV-1 p7NC protein were performed as previously described (Rice et al., Science 270:1194, 1995). The p7NC protein was prepared at 20 μg/ml in 10 mM sodium phosphate buffer (pH 7.0), treated with 25 μM of each compound, then after indicated time intervals the samples were diluted 1/10 in 10 mM sodium phosphate buffer (pH 7.0) and the fluorescence intensity measured. The excitation and emission wavelengths utilized with the Shimadzu RF5000 spectrofluorimeter were 280 nm and 351 nm, respectively. In an alternate assay, the zinc-selective fluorescent probe N-(6-methoxy-8quinolyl-)-p-toluenesulfonamide (TSQ, Molecular Probes, Eugene, Oreg.) originally described by Fredrickson (J. Neurosci. Meth. 20:91, 1987) was utilized to measure zinc released from the p7NC protein in vitro. Briefly, 2 μM recombinant HIV-1 p7NC protein in 10 mM sodium phosphate buffer, pH 7.0, 10% glycerol was treated with 10 μM 624151 ([…] total volume in 96-well plates), and the time-dependent increase in fluorescence was measured on a Labsystems Fluoroskan II (360 nm excitation filter and 460 nm emission filter) over a period of 2 hours. Induction of alterations of p7NC proteins within intact virions involved treatment of HIV-1MN for 1 hour at 37° C. with 25 μM test compound. Samples were centrifuged 1 hour at 4° C. under 18,000×g to pellet the virus from the drug. Virus pellets were resolved by non-reducing SDS-PAGE and analyzed by immunoblot using monospecific rabbit antisera to the purified p7NC protein.
^b The percent decrease in RFU was calculated based on measurement of
the initial fluorescence of the p7NC protein before and 10 minutes after
treatment with the 25 μM of compound at ambient temperature.
The ability of 624151 to chemically interact with the zinc fingers of the HIV-1 p7NC protein was initially determined by a fluorescence assay (Rice et al., Science 270:1194-1197, (1995)) that measures a loss in intrinsic fluorescence of the tryptophan (Trp^37) residue in the second finger of the protein that occurs upon loss of zinc from the finger (Summers et al., Protein Sci. 1:563, 1992). […] As the 624151 modifies the zinc finger thiolates and the zinc is ejected over time, the metal is bound by the TSQ fluorochrome (FIG. 1(B)).
Sodium Phosphate buffer, pH 7.0 in 1 ml was treated with 25 μM of
compound. At indicated times, the mixture was diluted 1/10 and the
relative fluorescence units (RFU) measured in a Shimadzu RF5000
spectrofluorimeter with […] and Em = 351 mn. Following
loss of zinc from the Cterminal zinc finger, the Trp37 residue folds away
from the # aqueous environment and experiences a loss of fluorescence.

[2] = CEM-SS cells, HIV-1RF, read-out: XTT Assay EC50
[3] = Human immunodeficiency virus 1, read-out: Mo/M.PHI. EC50

| Compound | IC50 (CEM-SS cells) | IC50 [1] | EC50 (HIV-1ADA; [3]) | further results |
| --- | --- | --- | --- | --- |
| O=S1(=O)C[C@@H](O)[C@H](O)CS1 (relative stereo) [NSC 624152] | 135 µM | > 100 µM | – | EC50 (HIV-1RF; [2]): 13.1 µM; antiviral activity / efficacy (HIV-1RF; in words): only a slight reduction in the antiviral efficacy; EC50 (HIV-1ADA; Human immunodeficiency virus 1, HIV-1ADA, monocyte/macrophage cultures, 50% reduction in p24, read-out: Mo/M.PHI. EC50): 9.1 µM; reactivity with the zinc fingers (HIV-1 p7NC protein): equivalent reactivity with the zinc fingers |
| [O-][S+]1C[C@@H](O)[C@H](O)CS1 (relative stereo) [NSC 663603] | 59.3 µM | > 100 µM | > 100 µM | – |
| O[C@@H]1CSSC[C@H]1O (relative stereo) [NSC 663605] | > 200 µM | > 100 µM | > 100 µM | – |
| CC(=O)O[C@H]1CSS(=O)(=O)C[C@H]1OC(C)=O (relative stereo) [NSC 667091] | 9.2 µM | > 100 µM | 25 µM | – |
| CC(=O)O[C@@H]1CS[S+]([O-])C[C@H]1OC(C)=O (relative stereo) [NSC 667094] | 22.1 µM | > 100 µM | 5.5 µM | – |
| Nc1ccn([C@H]2CC[C@@H](CO)O2)c(=O)n1 [DDC, reference compound] | – | – | – | zinc ejection (HIV-1 p7NC protein): do not |
| CSC[C@H](NC(=O)COc1cccc2cnccc12)C(=O)N[C@@H](Cc1ccccc1)[C@H](O)C(=O)N1CSC[C@H]1C(=O)NC(C)(C)C [KNI-272, reference compound] | – | – | – | zinc ejection (HIV-1 p7NC protein): do not |
| [O-][S+]1CCCCS1 (centres unmarked) [NSC 56224] | 26.2 µM | > 100 µM | > 100 µM | – |
| OCC1(CO)CSSC1 [NSC 72270] | > 200 µM | > 100 µM | > 100 µM | – |
| NC(=O)NN=C1CSSC1 [NSC 208744] | 127 µM | – | – | EC50 (HIV-1RF; [2]): 28.7 µM |
| O=C1NC(=O)C2(CSSC2)N1 [NSC 208750] | 24.8 µM | – | – | EC50 (HIV-1RF; [2]): 1.83 µM |
| NC1(C(=O)O)CSSC1 [NSC 212561] | 10.7 µM | – | – | EC50 (HIV-1RF; [2]): 3.06 µM |
| O=S1(=O)CCCCS1 [NSC 627175] | 5.7 µM | > 100 µM | 25 µM | – |
| O=C(O)CCCCC1CCSS1 (centres unmarked) [NSC 628502] | > 1210 µM | – | – | EC50 (HIV-1RF; read-out: XTT Assay EC50, CEM-SS cells, HIV-1RF): 590 µM |
| CC(=O)OCC1(COC(C)=O)CSSC1 [NSC 660167] | > 200 µM | > 100 µM | > 100 µM | – |
| CC(=O)OCC1(COC(C)=O)CSS(=O)(=O)C1 [NSC 661126] | 30.3 µM | > 100 µM | 21 µM | EC50 (HIV-1RF; [2]): 9.8 µM |
| O=S1(=O)CC(CO)(CO)CS1 [NSC 661127] | 378 µM | – | – | EC50 (HIV-1RF; [2]): 34 µM |
| [O-][S+]1CC(CO)(CO)CS1 (centres unmarked) [NSC 661753] | > 200 µM | > 100 µM | 46 µM | – |
| CC(=O)OCC1(COC(C)=O)CS[S+]([O-])C1 (centres unmarked) [NSC 661754] | 14.3 µM | > 100 µM | > 100 µM | – |
| O[C@@H]1CSSC[C@@H]1O [NSC 667089] | 20.1 µM | > 100 µM | > 100 µM | – |
| CC(=O)O[C@H]1CSSC[C@H]1OC(C)=O [NSC 667093] | > 200 µM | > 100 µM | > 100 µM | – |
| CC(C)OC(=O)c1cc(NC(=S)OC(C)C)ccc1Cl [UC38, reference compound] | – | – | – | zinc ejection (HIV-1 p7NC protein): do not |
